These results are taken from paper PMC8157947, “Peptidic boronic acids are potent cell-permeable inhibitors of the malaria parasite egress serine protease SUB1” (Proceedings of the National Academy of Sciences of the …, 2021).

Test [1] relates to P. falciparum 3D7 schizonts. In words: Short-term egress/invasion assay, ring formation by flow cytometry. In kind it is cell-based, Plasmodium falciparum. How it is done:
For this, P. falciparum cultures containing synchronous, highly mature schizonts were supplemented with compounds 3b, 3e, 3i, and 3j at a range of dilutions, then allowed to undergo egress and invasion for just 4 h in the continued presence of the compounds, before assessing formation of newly invaded “ring” stage parasites by flow cytometry.
Short-term egress, invasion, and washout assays were performed essentially as described previously ([27], [28], [42]). Briefly, highly synchronous mature Percoll-enriched schizonts with or without added fresh RBCs (∼5% parasitaemia final) were incubated with compounds under test or vehicle only (DMSO, 1% vol/vol). For washout assays, schizonts were treated with C2 or various concentrations of inhibitor 3j for 1 to 4 h, then washed extensively (at least four times) prior to addition to fresh RBCs where required. After incubation at 37 °C for just 1 to 4 h (or overnight for invasion assays) to allow schizont rupture, cells were pelleted. Clarified culture supernatants were assessed for extent of hemoglobin release (a measure of schizont rupture) by absorption spectroscopy at 415 nm as described previously ([28]) or analyzed by Western blot using antibodies against SERA5 ([7], [11]). To quantify generation of new rings, samples of the cultures were fixed with 4% paraformaldehyde/0.02% glutaraldehyde and stained with SYBR Green I (Life Technologies) and then analyzed by flow cytometry on a BD FACSVerse using BD FACSuite software. Data were analyzed using FlowJo software. All cultures were also routinely analyzed by microscopic examination of Giemsa-stained thin films to visually assess parasite morphology.
Background: In flow cytometry, cells or beads pass a laser one at a time.

Test [2] concerns the target T1, trypsin (Bos taurus, UniProt P00760).
T1 construct: purchased Sigma-Aldrich T1426; host or cells: bovine pancreas
T1 sequence (P00760 24-246): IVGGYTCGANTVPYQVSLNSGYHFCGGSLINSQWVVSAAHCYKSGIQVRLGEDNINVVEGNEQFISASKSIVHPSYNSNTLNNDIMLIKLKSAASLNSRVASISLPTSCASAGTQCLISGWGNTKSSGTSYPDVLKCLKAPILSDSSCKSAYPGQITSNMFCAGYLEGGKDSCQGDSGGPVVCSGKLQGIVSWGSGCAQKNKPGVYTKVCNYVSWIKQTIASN
In words: Trypsin inhibition assay (Boc-QAR-AMC cleavage). Type of test: biochemical, bovine. How it is done:
Analytical data are in accor dance with those reported in the literature12.
(+)-Pinanediol (1- am inobenzyl)boronate h ydrochloride 9g
A previousl y reported m ethod was used for the first step of the s ynthesis3.
Phenylm agnesium brom ide 0.7 M (3.1 m L, 2.15 mm ol, 1.2 equiv) was added dropwise at −78°C to a solution of (+)-pinanediol dichloromethyl boronate 24 (470 m g, 1.79 mmol, 1.0 equiv) in anh ydrous dieth yl ether (10 m L). Af ter 15 m in ZnCl2 1 M (1.8 m L, 1.8 mm ol, 1.0 equiv) was slowl y added at this t em perature. T he reaction m ixture was allowed to warm up to room tem perature over 2 hours. The inorganic precipitate was filtered off and the solvents were rem oved in vacuo. The residue was dissolved in pentane, washed with water and dried over Na2SO4. Rem oval of the solvent gives a product which was forwarded to the next step without purification. […]
Assays f or inh ib ition of tr yp s in activity (T PC K trea ted, f rom bovine pa ncreas; Sigm a-Aldrich T 1426) were based on cleavage of the fluorogenic peptide substrate Boc -QAR-AMC (Sigma- Aldrich B4153). which contains the fluorescent 7- am ino-4-m ethyl c oum arin (AMC) group. […] Cleavage of this bond results in release of AMC and i ncreased fluorescence. […]

Regarding `CC(=O)NC(C(=O)NC(C(=O)NCC(=O)NC(C)B(O)O)C(C)C)C1CCCC1` (stereo not shown) [3j], the “schizont phenotype in Giemsa-stained thin films” value in test [1] (10 μM, 4 h incubation) is “arrest of unruptured schizonts with no ring formation”. The compound further gave an EC50 in test [1] (Plasmodium falciparum, mature 3D7 schizonts with RBCs, 4 h, flow cytometry) of 2500 ± 300 nM. In test [2] (10 µM), the “effect on trypsin activity” value is recorded as “no detectable effect”. In test [2] (bovine trypsin, Boc-QAR-AMC), this compound came in with an IC50 greater than 10000 nM.

The term EC50 denotes the concentration giving half of the maximal effect. Higher therefore signals a less potent agent. Broadly, the IC50 is the point on the concentration scale where inhibition reaches its midpoint. Higher therefore signals weaker potency.
